Experimental data: US20250351832A1, “PHYTOCHEMICALS AS BIOPESTICIDES AND BIOSTIMULANTS” (KAY BEE BIO ORGANICS PVT. LTD., priority 2024, published 2025)
Read-outs that look alike come from different tables or passages of the source.

How the values were obtained:
Alternaria alternata [1] = assay: In vitro poisoned food technique against fungus (Ex. 20); type: cell-based; conditions: poisoned food technique, PDA medium, dose 1 ml/gm/lit., after seven days
Alternaria alternata [2] = assay: Alternaria leaf spot/blight on inoculated tomato plants (Ex. 28); type: in vivo; conditions: tomato plants, Alternaria alternata; after 7 days; dose 1 ml/gm/lit
tomato seedlings = assay: Response of tomato plants, greenhouse growth (Ex. 30); type: in vivo; conditions: tomato seedlings, dose 1 ml/gm/lit
chili seedlings = assay: Response of chili plants, greenhouse growth (Ex. 31); type: in vivo; conditions: chili seedlings, dose 1 ml/gm/lit
Aphid [3] = conditions: Dose 1 ml/gm/lit.
Mite [4] = conditions: Dose 1 ml/gm/lit.
Mealy Bug [5] = conditions: Mealy Bug on cotton leaves, dose 1 ml/gm/lit., 48 Hrs.
Helicoverpa armigera [6] = conditions: Helicoverpa armigera on okra fruits, dose 1 ml/gm/lit., 72 Hrs.
Spodoptera litura [7] = conditions: Spodoptera litura on castor leaves; dose 1 ml/gm/lit.; 10 insects/treatment; 72 hrs after application
Thrips [8] = conditions: Thrips on cotton leaves; dose 1 ml/gm/lit.; 10 insects/treatment; 48 hrs after application
Aphid [9] = conditions: Aphids on cotton plants, green house; dose 1 ml/gm/lit.; 10 insects/plant, 10 plants/treatment; 48 hrs
Mite [10] = conditions: mite on okra plants, green house, dose 1 ml/gm/lit. spray
Mealy Bug [11] = conditions: mealy bug on cotton plants, green house, dose 1 ml/gm/lit. spray
Helicoverpa armigera [12] = conditions: Helicoverpa armigera 3rd instar on chickpea plants, dose 1 ml/gm/lit. spray
Spodoptera litura [13] = conditions: Spodoptera litura 3rd instar on cabbage plants, dose 1 ml/gm/lit. spray
Thrips [14] = conditions: thrips on cotton plants, greenhouse, dose 1 ml/gm/lit. spray
[15] = Table 13, descriptive; no test described; cited from earlier work
Spodoptera litura [16] = assay: whole plant or invertebrate; conditions: 72 h
Thrips [17] = assay: whole plant or invertebrate; conditions: in Gossypium hirsutum, 48 h
Aphid [18] = assay: whole plant or invertebrate; conditions: 48 h
[19] = 10 insects/treatment, 4 replications
[20] = 48 hrs, corrected for water control
[21] = 72 hrs, corrected for water control
[22] = read-out: % Corrected Mortality at 48 Hrs.
[23] = read-out: % Mortality at 48 Hrs.

Cc1ccc(C(C)C)cc1O [Carvacrol]
Mean colony Diameter (mm) (Alternaria alternata [1]): 52.50 mm
inhibition of growth at 1 mL or g/L (Alternaria alternata [1]; vs untreated control, read-out: % Inhibition of growth): 40.3%
% Disease reduction over Control (Alternaria alternata [2]): 47.93%
Plant Height 5th Day (tomato seedlings; 5th day after application): 6.38 cm
Stem Girth 5th Day (tomato seedlings; 5th day after application): 2.05 mm
Plant Height 10th Day (tomato seedlings; 10th day after application): 7.23 cm
Stem Girth 10th Day (tomato seedlings; 10th day after application): 2.35 mm
Plant Height % Increase over pre on 10th Day (tomato seedlings; 10th day): 32.66%
Stem Girth % Increase over pre on 10th Day (tomato seedlings; 10th day): 63.42%
CCI 5th Day (tomato seedlings; 5th day after application): 13.62
CCI % Increase over pre on 10th Day (tomato seedlings; 10th day): 33.70%
Root Length (cm) 10th Day (tomato seedlings; 10th day): 4.25 cm
CCI 10th Day (tomato seedlings; 10th day after application): 15.87
Root Length % Increase over control (tomato seedlings; 10th day, vs water control): 27.69%
CCI 5th Day (chili seedlings; 5th day after application): 14.95
Plant Height (cm) 5th Day (chili seedlings; 5th day after application): 6.33 cm
CCI % Increase over pre on 10th Day (chili seedlings; 10th day): 64.84%
Plant Height % Increase over pre on 10th Day (chili seedlings; 10th day): 65.77%
Root Lenght (cm) 10th Day (chili seedlings; 10th day): 3.97 cm
Stem Girth % Increase over pre on 10th Day (chili seedlings; 10th day): 49.25%
CCI 10th Day (chili seedlings; 10th day after application): 15
Plant Height (cm) 10th Day (chili seedlings; 10th day after application): 7.57 cm
Root Lenght % Increase over control (chili seedlings; 10th day, vs water control): 44.94%
Total No. of dead insect at 48 Hrs. (Aphid [3]; 10 insects/treatment, 4 replications, cotton leaves): 7.00
% Corrected Mortality at 48 Hrs. (Aphid [3]; 48 hrs): 65.71%
% Mortality at 48 Hrs. (Aphid [3]; 48 hrs): 70.00%
Total No. of dead insect at 48 Hrs. (Mite [4]; 10 insects/treatment, 4 replications, okra leaves): 4.25
% Corrected Mortality at 48 Hrs. (Mite [4]; 48 hrs): 37.84%
% Mortality at 48 Hrs. (Mite [4]; 48 hrs): 42.50%
Total No. of dead insect at 48 Hrs. (Mealy Bug [5]; [19]): 6.75
% Mortality at 48 Hrs. (Mealy Bug [5]): 67.50%
% Corrected Mortality at 48 Hrs. (Mealy Bug [5]; corrected for water control): 65.79%
Total No. of dead insect at 72 Hrs. (Helicoverpa armigera [6]; [19]): 5.50
% Mortality at 72 Hrs. (Helicoverpa armigera [6]): 55.00%
% Corrected Mortality at 72 Hrs. (Helicoverpa armigera [6]; corrected for water control): 55.00%
Total No. of dead insect at 72 Hrs. (Spodoptera litura [7]): 4.50
Total No. of dead insect at 48 Hrs. (Thrips [8]): 3.50
Total No. of dead insect at 48 Hrs. (Aphid [9]): 72.50
% Mortality at 48 Hrs. (Mite [10]; 48 hrs after application): 47.50%
Total No. of dead insect at 48 Hrs. (Mite [10]; 48 hrs after application): 47.50
% Corrected Mortality at 48 Hrs. (Mite [10]; [20]): 44.74%
% Mortality at 48 Hrs. (Mealy Bug [11]; 48 hrs after application): 65.00%
Total No. of dead insect at 48 Hrs. (Mealy Bug [11]; 48 hrs after application): 65.00
% Corrected Mortality at 48 Hrs. (Mealy Bug [11]; [20]): 61.11%
% Mortality at 72 Hrs. (Helicoverpa armigera [12]; 72 hrs after application): 52.50%
% Corrected Mortality at 72 Hrs. (Helicoverpa armigera [12]; [21]): 52.50%
% Mortality at 72 Hrs. (Spodoptera litura [13]; 72 hrs after application): 47.50%
% Corrected Mortality at 72 Hrs. (Spodoptera litura [13]; [21]): 44.74%
% Mortality at 48 Hrs. (Thrips [14]; 48 hrs after application): 32.50%
Total No. of dead insect at 48 Hrs. (Thrips [14]; 48 hrs after application): 32.50
% Corrected Mortality at 48 Hrs. (Thrips [14]; [20]): 25.00%
Acaricidal Activity - Mode of action [15]: Has acaricidal activities
Antifungal Activity - Mode of action [15]: Antifungal activities
Antioxidant Activity - Mode of action [15]: Antioxidant activities
Bactericidal Activity - Mode of action [15]: Exhibits antibacterial
Insecticidal Activities - Mode of action [15]: Insecticidal toxicities
Nematicidal Activity - Mode of action [15]: Effective against plant
mortality at 1 mL or g/L (Spodoptera litura [16]; read-out: % Corrected Mortality at 72 Hrs.): 42.1%
mortality at 1 mL or g/L (Spodoptera litura [16]; read-out: % Mortality at 72 Hrs.): 45%
mortality at 1 mL or g/L (Thrips [17]; [22]): 25.7%
mortality at 1 mL or g/L (Thrips [17]; [23]): 35%
mortality at 1 mL or g/L (Aphid [18]; [22]): 67.7%
mortality at 1 mL or g/L (Aphid [18]; [23]): 72.5%
